Reference: US5993846A, “Bioadhesive emulsion preparations for enhanced drug delivery” (Pharmos Corporation, priority 1998, dated 1999)

System: blood clotting
Format: in vivo, Male Sprague Dawley rats
Method: Clotting time of blood droplets obtained by tail […] used to evaluate the systemic effect of LMWH following intracolonic (i.c.) or intravenous (i.v.) treatment of rats. Male Sprague Dawley rats (200-300 g) were used for all of these experiments. Following preliminary studies, experiments were performed between 8:00-13:00 hours in order to reduce diurnal changes in responsiveness to heparins. Rats were anesthetized with 0.3 ml […] (2:1), weighed, and the initial blood clotting time was determined. Each rat was then treated with either Fragmin or control vehicle (i.v. or i.c.). Intravenous treatment was performed by exposing the femoral […] and injecting in the direction of blood flow. Intracolonic treatment was performed by opening the peritoneal cavity at the midline, locating the secum, and injecting into the large intestine, approximately 2 cm from the secum. The time of treatment was considered as T. At the indicated intervals, blood clotting time was determined. The pharmacological activity, denoted PA %, was used to evaluate the relative effect of various routes of administration and dose levels on blood clotting time. PA % was calculated for the individual rats and the values presented are the mean of each group. […] Blood clotting was measured by […] […] The clotting time was measured with a stop watch that was started when the drops were collected.

Q: Which results are given for Low molecular weight heparin [LMWH]?
A: dose-response of blood clotting time and maximal effect, ME % (i.v., groups A-C, FIG. 4): approximately linear dose-response; TMAX of blood clotting time (rat, in vivo): 1.5 h
